Assay results published in ChEMBL document CHEMBL6127112, “Discovery of Novel Nonpeptidic Proteasome Inhibitors Using Covalent Virtual Screening and Biological Evaluation” (ACS Med Chem Lett, 2024).
One block for each molecule: values may come before it. Calls of active or inactive are those of the source. The rule behind the calls is not given here.

Legend:
[1] = Cytotoxicity against HEK293T cells assessed as reduction in cell viability incubated for 72 hrs by CellTiter 96 non-radioactive cell proliferation assay; type: toxicity, cell-based, HEK-293T; conditions: human
[2] = target: 20S proteasome; assay: (§1) Inhibition of human erythrocyte-derived 20S constitutive proteasome protein using Suc-LLVY-AMC as substrate preincubated for 15 mins followed by substrate addition and measured after 30 mins by multimode plate reader analysis
[3] = target: Angiotensin-converting enzyme 2 (Homo sapiens, UniProt Q9BYF1); assay: Inhibition of human His-tagged ACE2 (18 to 740 residues) using ACE2 fluorogenic substrate incubated for 60 mins by fluorescence based assay
[4] = target: Cathepsin B (Homo sapiens, UniProt P07858); assay: Inhibition of human Cathepsin B using Ac-RR-AFC as substrate preincubated for 10 to 15 mins followed by substrate addition and measured for 30 to 60 mins by fluorescence based assay
[5] = target: T1, Caspase-2 (Homo sapiens, UniProt P42575); assay: Inhibition of Caspase-2 (unknown origin) by fluorometric assay
T1 sequence (P42575 whole entry): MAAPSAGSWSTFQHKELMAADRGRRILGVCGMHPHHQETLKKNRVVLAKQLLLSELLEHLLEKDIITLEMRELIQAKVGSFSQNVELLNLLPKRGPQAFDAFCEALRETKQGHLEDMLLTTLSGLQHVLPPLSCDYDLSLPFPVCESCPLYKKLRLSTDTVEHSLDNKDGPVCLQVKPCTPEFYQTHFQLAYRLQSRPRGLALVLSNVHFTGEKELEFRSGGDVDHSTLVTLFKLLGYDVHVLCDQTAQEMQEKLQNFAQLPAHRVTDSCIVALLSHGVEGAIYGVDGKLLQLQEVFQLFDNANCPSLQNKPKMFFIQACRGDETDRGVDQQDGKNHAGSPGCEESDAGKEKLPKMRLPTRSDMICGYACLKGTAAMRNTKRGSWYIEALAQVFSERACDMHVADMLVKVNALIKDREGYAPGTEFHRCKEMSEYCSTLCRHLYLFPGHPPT

[6] = target: Procathepsin L (Homo sapiens, UniProt P07711); assay: Inhibition of Cathepsin L (unknown origin) using AFC based peptide as substrate by fluorometric assay
[7] = system: NCI-H929; assay: Antiproliferative activity against human NCI-H929 cells assessed as reduction in cell viability incubated for 72 hrs by CellTiter 96 non-radioactive cell proliferation assay; type: functional, cell-based
[8] = target: T2, 20S proteasome (Homo sapiens) (UniProt P49721+P20618+P28074+P28062+P28065+P28072+P25786+P25787+P25788+P25789+P28066+P60900+O14818+Q8TAA3+P40306+A5LHX3+P49720+P28070+Q99436); assay: Inhibition of human erythrocyte-derived 20S constitutive proteasome protein at 100 uM using Suc-LLVY-AMC as substrate preincubated for 15 mins followed by substrate addition and measured after 30 mins by multimode plate reader analysis relative to control; conditions: time 45.0 min
[9] = target: T2, 20S proteasome (Homo sapiens); assay: as §1; conditions: time 45.0 min
[10] = target: T2, 20S proteasome (Homo sapiens); assay: Inhibition of human 20S immunoproteasome protein at 100 uM using Suc-LLVY-AMC as substrate preincubated for 15 mins followed by substrate addition and measured after 30 mins by multimode plate reader analysis relative to control; type: protein-complex assay; conditions: time 45.0 min

Chain of Procathepsin L (P07711 whole entry): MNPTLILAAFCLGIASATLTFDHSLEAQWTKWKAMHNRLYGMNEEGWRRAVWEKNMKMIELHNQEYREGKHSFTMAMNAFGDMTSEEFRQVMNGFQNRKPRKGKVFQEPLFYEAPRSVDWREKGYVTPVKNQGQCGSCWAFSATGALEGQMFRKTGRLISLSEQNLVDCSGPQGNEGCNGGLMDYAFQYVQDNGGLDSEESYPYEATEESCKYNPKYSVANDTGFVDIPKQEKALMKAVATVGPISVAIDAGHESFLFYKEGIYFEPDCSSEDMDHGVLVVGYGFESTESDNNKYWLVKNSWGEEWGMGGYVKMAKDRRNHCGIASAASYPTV
Chain of Angiotensin-converting enzyme 2 (Q9BYF1 whole entry, the tested form may be a part): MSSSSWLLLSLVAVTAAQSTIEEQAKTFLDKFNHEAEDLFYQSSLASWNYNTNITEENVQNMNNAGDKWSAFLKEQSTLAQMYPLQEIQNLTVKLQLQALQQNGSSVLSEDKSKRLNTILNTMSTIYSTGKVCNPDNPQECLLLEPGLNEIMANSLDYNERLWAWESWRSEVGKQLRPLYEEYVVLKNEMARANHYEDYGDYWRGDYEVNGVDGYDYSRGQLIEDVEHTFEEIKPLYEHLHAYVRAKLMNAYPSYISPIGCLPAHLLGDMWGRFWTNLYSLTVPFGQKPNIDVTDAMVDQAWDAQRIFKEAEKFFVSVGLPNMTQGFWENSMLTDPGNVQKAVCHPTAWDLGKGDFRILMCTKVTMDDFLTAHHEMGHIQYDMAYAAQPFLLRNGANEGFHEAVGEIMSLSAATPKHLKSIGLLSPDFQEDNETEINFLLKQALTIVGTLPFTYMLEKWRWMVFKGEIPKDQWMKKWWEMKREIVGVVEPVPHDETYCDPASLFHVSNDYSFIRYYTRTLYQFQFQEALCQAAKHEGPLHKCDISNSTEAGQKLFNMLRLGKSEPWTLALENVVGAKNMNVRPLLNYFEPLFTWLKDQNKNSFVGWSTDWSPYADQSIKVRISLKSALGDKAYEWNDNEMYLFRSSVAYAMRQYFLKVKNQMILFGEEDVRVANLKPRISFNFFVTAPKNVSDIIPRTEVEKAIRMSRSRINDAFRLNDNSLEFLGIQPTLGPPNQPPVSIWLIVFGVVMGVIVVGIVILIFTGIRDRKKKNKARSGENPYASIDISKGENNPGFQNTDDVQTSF

SMILES: CCN(CC)C(=O)Cn1cc(C(=O)C(=O)Nc2ccc3c(c2)OCCO3)c2ccccc21
CC50 at 72 h [1]: > 200 µM
IC50 [2]: 12.4 µM
IC50 [3]: > 100 µM
IC50 [4]: > 100 µM
IC50 [5]: > 100 µM
IC50 [6]: > 100 µM
Activity [7]: Dose-Dependent Effect

SMILES: O=C(NCc1ccccc1)C(=O)c1cn(CC(=O)N2CCOCC2)c2ccccc12
inhibition [8]: 26%

SMILES: COc1cc(NC(=O)C(=O)c2ccn(Cc3ccccc3)c2)cc(OC)c1
inhibition [9]: inactive

SMILES: O=C(Nc1ccc2c(c1)OCCO2)C(=O)c1cn(Cc2ccc(Cl)cc2)c2ccccc12
inhibition [9]: inactive

SMILES: CC[C@@H](C)NC(=O)C(=O)c1cn(CC(=O)N2CCOCC2)c2ccccc12
IC50 [2]: 69.2 µM

SMILES: O=C(Nc1ccccc1-c1ccccc1)C(=O)c1cn(CC(=O)N2CCOCC2)c2ccccc12
inhibition [9]: inactive

More lines, main results first:

IC50 [2]: 31.3 µM
SMILES: CC(=O)c1cccc(NC(=O)C(=O)c2cn(CC(=O)N3CCOCC3)c3ccccc23)c1

inhibition [8]: 55%
SMILES: O=C(Nc1ccccc1)C(=O)c1cn(CC(=O)N2CCOCC2)c2ccccc12

IC50 [2]: 18.5 µM
IC50 [3]: > 100 µM
IC50 [4]: > 100 µM
IC50 [5]: > 100 µM
IC50 [6]: > 100 µM
SMILES: COc1ccc(NC(=O)C(=O)c2cn(CC(=O)N3CCCCC3)c3ccccc23)cc1OC
CC50 at 72 h [1]: > 200 µM
Activity [7]: Dose-Dependent Effect

inhibition [9]: inactive
SMILES: CC(=O)Nc1ccc(NC(=O)C(=O)c2cn(CC(=O)N3CCOCC3)c3ccccc23)cc1

inhibition [9]: inactive
SMILES: Cc1ccc(NC(=O)C(=O)c2cn(CC(=O)N3CCOCC3)c3ccccc23)c(C)c1

IC50 [2]: 107 µM
inhibition [9]: Dose-Dependent Effect
inhibition [8]: 50%
inhibition [10]: 50%
SMILES: COc1ccc(NC(=O)C(=O)c2cn(CC(=O)N3CCOCC3)c3ccccc23)cc1OC

IC50 [2]: 40.8 µM
SMILES: O=C(Nc1ccc2c(c1)OCCO2)C(=O)c1cn(CC(=O)N2CCOCC2)c2ccccc12
